Data on 27 compounds can be found in ChEMBL document CHEMBL3751797, “Discovery of TRAF-2 and NCK-interacting kinase (TNIK) inhibitors by ligand-based virtual screening methods” (Medchemcomm, 2015).

In data set [1] the target is T1, TRAF2 and NCK-interacting protein kinase (Homo sapiens, UniProt Q9UKE5). Nature of the data set: Inhibition of recombinant TNIK (unknown origin) using LRRKtide as substrate at 10 uM after 1 hr in presence of 30 uM ATP.
Target sequence in this assay (Q9UKE5 whole entry, looked up): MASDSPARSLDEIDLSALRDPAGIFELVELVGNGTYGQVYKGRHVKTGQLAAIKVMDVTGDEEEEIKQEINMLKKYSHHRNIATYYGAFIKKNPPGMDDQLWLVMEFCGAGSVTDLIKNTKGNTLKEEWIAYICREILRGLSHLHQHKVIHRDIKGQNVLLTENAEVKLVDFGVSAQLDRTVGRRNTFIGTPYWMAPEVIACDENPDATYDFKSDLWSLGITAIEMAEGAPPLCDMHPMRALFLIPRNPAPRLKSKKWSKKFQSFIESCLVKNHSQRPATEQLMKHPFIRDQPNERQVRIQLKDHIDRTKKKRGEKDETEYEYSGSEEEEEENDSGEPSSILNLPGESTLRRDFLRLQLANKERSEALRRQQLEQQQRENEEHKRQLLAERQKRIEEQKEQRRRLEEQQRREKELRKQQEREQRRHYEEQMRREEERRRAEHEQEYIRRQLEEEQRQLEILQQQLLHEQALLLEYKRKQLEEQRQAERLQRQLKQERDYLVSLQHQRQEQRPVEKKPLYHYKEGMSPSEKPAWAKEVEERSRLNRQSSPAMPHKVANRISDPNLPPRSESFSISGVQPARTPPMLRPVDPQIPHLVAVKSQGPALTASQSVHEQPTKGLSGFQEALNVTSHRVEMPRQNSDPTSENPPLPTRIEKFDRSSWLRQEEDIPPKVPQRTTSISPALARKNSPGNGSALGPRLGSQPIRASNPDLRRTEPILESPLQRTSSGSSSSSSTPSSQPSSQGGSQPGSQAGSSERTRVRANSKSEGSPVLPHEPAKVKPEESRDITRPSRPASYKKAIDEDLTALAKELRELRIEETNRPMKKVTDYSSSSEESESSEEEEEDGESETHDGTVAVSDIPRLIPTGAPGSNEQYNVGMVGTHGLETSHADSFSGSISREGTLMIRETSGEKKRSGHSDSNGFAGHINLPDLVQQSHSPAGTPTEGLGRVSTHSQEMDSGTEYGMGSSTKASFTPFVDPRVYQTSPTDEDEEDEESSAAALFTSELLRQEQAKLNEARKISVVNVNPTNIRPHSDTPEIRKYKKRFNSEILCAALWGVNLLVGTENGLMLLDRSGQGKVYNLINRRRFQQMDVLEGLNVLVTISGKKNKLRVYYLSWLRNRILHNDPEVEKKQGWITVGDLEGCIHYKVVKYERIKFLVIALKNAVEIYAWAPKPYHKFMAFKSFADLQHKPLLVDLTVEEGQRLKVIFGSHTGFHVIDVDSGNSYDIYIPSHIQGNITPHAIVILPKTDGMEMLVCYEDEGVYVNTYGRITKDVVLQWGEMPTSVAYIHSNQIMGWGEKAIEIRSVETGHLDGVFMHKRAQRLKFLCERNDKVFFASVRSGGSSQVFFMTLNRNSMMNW
Data set [2] concerns the target T1, TRAF2 and NCK-interacting protein kinase. In words: Inhibition of recombinant TNIK (unknown origin) using LRRKtide as substrate after 1 hr in presence of 30 uM ATP.
Target sequence in this assay (Q9UKE5 whole entry): as the sequence (Q9UKE5 whole entry, looked up) above
Data set [3] addresses ALK tyrosine kinase receptor (Homo sapiens) (UniProt Q9UM73). Nature of the data set: Inhibition of human ALK using IGF-1Rtide as substrate at 10 uM after 2 hrs in presence of 30 uM ATP.
The target in data set [4] is T2, Aurora kinase A (Homo sapiens) (UniProt O14965).
T2 sequence (whole entry): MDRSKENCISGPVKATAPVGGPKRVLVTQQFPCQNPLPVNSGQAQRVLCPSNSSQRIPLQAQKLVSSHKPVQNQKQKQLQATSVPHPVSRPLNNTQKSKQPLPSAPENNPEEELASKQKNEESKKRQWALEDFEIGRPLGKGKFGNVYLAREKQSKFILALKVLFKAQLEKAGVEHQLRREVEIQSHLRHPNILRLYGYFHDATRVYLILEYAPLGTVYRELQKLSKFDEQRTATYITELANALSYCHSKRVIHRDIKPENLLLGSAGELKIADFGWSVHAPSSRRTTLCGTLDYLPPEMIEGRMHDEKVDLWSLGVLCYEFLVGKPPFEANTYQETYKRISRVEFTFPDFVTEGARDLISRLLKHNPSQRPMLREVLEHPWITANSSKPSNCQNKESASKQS
In words: Inhibition of human AURA using kemptide as substrate at 10 uM after 1 hr in presence of 30 uM ATP.

The target in data set [5] is Tyrosine-protein kinase BTK (Homo sapiens) (UniProt Q06187). In words: Inhibition of human BTK using srctide as substrate at 10 uM after 1 hr in presence of 30 uM ATP.
Data set [6] addresses Epidermal growth factor receptor (Homo sapiens) (UniProt P00533). Nature of the data set: Inhibition of human EGFR using srctide as substrate at 10 uM after 1 hr in presence of 30 uM ATP.
Data set [7] has as its target Fibroblast growth factor receptor 1 (Homo sapiens) (UniProt P11362). Nature of the data set: Inhibition of human FGFR1 using IGF-1Rtide as substrate at 10 uM after 1 hr in presence of 30 uM ATP.
The target in data set [8] is Fibroblast growth factor receptor 2 (Homo sapiens) (UniProt P21802). In words: Inhibition of human FGFR2 using IGF-1Rtide as substrate at 10 uM after 1 hr in presence of 30 uM ATP.
The target in data set [9] is Receptor-type tyrosine-protein kinase FLT3 (Homo sapiens) (UniProt P36888). In words: Inhibition of human FLT3 using srctide as substrate at 10 uM after 1 hr in presence of 30 uM ATP.
Data set [10] concerns the target Glycogen synthase kinase-3 (Homo sapiens) (UniProt P49840+P49841). Nature of the data set: Inhibition of human GSK3 using GSM as substrate at 10 uM after 1.5 hrs in presence of 30 uM ATP. In kind it is protein assay.
Data set [11] concerns the target Insulin-like growth factor 1 receptor (Homo sapiens) (UniProt P08069). Nature of the data set: Inhibition of human IGF1R at 10 uM in presence of 30 uM ATP.
Data set [12] addresses Tyrosine-protein kinase JAK2 (Homo sapiens) (UniProt O60674). Nature of the data set: Inhibition of human JAK2 using IGF-1Rtide as substrate at 10 uM after 1 hr in presence of 30 uM ATP.
Data set [13] concerns the target Vascular endothelial growth factor receptor 2 (Homo sapiens) (UniProt P35968). In words: Inhibition of human KDR using srctide as substrate at 10 uM after 1 hr in presence of 30 uM ATP.
The target of data set [14] is Platelet-derived growth factor receptor beta (Homo sapiens) (UniProt P09619). Nature of the data set: Inhibition of human PDGFRbeta using srctide as substrate at 10 uM after 1 hr in presence of 30 uM ATP.
Data set [15] deals with Serine/threonine-protein kinase pim-1 (Homo sapiens) (UniProt P11309). In words: Inhibition of human PIM1 using S6K as substrate at 10 uM after 1 hr in presence of 30 uM ATP.
Data set [16] deals with Tyrosine-protein kinase SYK (Homo sapiens) (UniProt P43405). Nature of the data set: Inhibition of human SYK using srctide as substrate at 10 uM after 1 hr in presence of 30 uM ATP.
The next data set relates to NCI-H1703. Nature of the data set: Cytotoxicity against human NCI-H1703 cells transfected with lentiviral vector 7TFP assessed as cell viability at 10 uM after 72 hrs by ATPlite assay. Conditions: nci-h1703, 72 h. In kind it is cell-based. In general terms: ATP-based viability assays read luminescence as a measure of living cells.
Data set [17] deals with T1, TRAF2 and NCK-interacting protein kinase. Nature of the data set: Competitive inhibition of recombinant TNIK (unknown origin) using LRRKtide as substrate after 1 hr in presence of 3 uM ATP.
Target sequence in this assay (Q9UKE5 whole entry): as the sequence (Q9UKE5 whole entry, looked up) above
Data set [18] shares this target. Nature of the data set: Competitive inhibition of recombinant TNIK (unknown origin) using LRRKtide as substrate after 1 hr in presence of 30 uM ATP.
Target sequence in this assay (Q9UKE5 whole entry): as the sequence (Q9UKE5 whole entry, looked up) above
The target is the same in data set [19]. Nature of the data set: Competitive inhibition of recombinant TNIK (unknown origin) using LRRKtide as substrate after 1 hr in presence of 300 uM ATP.
Target sequence in this assay (Q9UKE5 whole entry): as the sequence (Q9UKE5 whole entry, looked up) above
Data set [20] deals with Phosphatidylinositol 4,5-bisphosphate 3-kinase catalytic subunit alpha isoform (Homo sapiens) (UniProt P42336). Nature of the data set: Inhibition of human PI3Kalpha using PIP2 as substrate at 10 uM after 1 hr in presence of 30 uM ATP.

By inhibition is commonly meant the change of the read-out against control, counted positive when it falls. For orientation: IC50 means the concentration needed to halve the response being measured.

ALK tyrosine kinase receptor (Homo sapiens), sequence (Q9UM73 19-1620 limits assumed): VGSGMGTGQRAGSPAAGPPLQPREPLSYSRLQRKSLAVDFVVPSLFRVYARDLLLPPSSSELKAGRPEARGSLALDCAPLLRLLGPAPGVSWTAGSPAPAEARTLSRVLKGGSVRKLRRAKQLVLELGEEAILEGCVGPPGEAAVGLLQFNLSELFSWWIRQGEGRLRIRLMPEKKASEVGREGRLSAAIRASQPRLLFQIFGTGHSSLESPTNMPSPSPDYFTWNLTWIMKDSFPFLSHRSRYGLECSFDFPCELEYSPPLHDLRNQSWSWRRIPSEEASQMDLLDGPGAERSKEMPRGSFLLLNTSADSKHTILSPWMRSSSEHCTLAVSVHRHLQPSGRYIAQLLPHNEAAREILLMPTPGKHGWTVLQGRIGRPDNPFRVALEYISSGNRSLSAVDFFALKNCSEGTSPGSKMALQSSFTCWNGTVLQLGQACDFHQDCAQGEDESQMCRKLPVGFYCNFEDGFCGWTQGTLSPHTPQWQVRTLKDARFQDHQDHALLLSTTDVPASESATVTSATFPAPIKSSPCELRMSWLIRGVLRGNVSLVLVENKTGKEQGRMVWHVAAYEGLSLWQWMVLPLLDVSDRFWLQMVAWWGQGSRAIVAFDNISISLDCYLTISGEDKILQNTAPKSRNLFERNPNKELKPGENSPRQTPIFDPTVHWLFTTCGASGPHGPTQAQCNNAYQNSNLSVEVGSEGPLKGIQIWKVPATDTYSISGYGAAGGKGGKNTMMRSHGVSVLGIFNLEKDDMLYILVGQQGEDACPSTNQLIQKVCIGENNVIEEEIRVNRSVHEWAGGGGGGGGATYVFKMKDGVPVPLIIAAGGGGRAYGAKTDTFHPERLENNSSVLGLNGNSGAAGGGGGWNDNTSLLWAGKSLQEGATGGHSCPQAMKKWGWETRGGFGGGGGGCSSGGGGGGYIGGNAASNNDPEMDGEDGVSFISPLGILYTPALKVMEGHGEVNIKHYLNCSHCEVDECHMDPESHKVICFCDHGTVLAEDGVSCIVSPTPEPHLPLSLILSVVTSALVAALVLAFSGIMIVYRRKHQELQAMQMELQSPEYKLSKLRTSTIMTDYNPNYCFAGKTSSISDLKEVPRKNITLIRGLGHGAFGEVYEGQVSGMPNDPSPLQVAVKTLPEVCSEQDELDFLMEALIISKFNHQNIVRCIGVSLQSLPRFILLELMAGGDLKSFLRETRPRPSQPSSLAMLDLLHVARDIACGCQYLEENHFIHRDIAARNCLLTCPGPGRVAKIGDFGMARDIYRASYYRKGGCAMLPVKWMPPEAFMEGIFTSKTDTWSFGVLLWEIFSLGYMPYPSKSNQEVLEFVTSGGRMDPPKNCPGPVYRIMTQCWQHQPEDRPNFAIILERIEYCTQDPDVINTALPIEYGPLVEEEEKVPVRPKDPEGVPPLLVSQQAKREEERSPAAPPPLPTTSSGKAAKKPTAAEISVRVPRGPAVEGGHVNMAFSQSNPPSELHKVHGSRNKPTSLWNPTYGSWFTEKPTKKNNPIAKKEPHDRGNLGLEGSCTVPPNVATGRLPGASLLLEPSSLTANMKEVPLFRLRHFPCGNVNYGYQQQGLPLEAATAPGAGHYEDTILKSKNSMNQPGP
Insulin-like growth factor 1 receptor (Homo sapiens), sequence (P08069 31-736 limits assumed): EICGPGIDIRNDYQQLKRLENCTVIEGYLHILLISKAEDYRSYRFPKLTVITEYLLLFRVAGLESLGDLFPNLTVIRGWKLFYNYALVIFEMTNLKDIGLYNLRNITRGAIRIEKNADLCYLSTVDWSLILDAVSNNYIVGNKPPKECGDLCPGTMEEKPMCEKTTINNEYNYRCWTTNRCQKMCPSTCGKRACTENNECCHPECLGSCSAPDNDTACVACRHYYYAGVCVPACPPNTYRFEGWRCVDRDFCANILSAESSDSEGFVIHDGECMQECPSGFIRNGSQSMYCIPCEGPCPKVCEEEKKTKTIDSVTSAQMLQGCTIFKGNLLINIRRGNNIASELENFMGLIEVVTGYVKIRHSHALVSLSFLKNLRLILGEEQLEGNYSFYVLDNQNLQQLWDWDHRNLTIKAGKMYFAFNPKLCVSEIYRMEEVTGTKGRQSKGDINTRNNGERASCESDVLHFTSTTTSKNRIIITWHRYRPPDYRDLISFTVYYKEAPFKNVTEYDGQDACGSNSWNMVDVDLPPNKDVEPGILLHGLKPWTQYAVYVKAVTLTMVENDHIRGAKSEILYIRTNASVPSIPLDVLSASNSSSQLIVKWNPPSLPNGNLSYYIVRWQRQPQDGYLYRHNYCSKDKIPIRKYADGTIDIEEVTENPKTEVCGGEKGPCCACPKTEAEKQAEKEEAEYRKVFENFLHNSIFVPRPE
Insulin-like growth factor 1 receptor (Homo sapiens), sequence (P08069 741-1367 limits assumed): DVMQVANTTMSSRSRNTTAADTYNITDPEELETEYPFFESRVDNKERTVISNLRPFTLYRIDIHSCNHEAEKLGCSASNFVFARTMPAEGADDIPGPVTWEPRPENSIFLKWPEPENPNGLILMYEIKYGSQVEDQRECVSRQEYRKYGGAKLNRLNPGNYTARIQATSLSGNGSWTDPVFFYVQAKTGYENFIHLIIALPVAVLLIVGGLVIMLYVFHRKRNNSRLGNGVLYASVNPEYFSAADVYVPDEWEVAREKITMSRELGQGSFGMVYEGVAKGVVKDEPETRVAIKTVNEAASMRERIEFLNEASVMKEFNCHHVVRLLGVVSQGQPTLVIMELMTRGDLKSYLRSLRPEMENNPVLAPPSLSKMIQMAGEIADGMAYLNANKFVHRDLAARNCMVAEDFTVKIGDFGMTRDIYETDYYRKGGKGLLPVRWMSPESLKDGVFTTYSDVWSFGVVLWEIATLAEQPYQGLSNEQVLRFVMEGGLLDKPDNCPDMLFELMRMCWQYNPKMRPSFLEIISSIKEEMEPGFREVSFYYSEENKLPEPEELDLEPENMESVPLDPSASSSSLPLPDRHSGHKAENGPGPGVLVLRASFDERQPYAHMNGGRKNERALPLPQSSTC
Tyrosine-protein kinase BTK (Homo sapiens), sequence (Q06187 whole entry): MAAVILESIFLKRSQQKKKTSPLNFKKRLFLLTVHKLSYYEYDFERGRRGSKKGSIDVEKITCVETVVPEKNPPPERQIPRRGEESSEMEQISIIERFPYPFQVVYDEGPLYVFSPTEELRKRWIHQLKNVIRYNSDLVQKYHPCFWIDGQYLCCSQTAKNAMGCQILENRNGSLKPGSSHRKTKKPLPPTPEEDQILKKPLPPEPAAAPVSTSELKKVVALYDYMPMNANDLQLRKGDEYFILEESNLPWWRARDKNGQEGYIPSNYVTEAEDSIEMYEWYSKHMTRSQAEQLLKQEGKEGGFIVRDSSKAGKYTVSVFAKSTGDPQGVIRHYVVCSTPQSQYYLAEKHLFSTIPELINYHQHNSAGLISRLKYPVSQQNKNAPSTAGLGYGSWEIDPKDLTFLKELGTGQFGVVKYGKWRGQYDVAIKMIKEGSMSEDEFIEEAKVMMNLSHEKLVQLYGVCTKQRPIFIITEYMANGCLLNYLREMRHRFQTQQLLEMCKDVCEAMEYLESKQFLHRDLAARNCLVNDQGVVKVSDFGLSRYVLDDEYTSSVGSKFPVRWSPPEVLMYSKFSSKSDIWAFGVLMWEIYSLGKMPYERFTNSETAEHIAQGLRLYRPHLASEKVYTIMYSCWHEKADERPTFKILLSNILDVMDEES

`Cc1cc([N+](=O)[O-])ccc1NC(=O)c1ccc(-c2cccc(Cl)c2Cl)o1`: the inhibition in data set [1] was 4.9%.
The same measure, in the same setting: for `Cc1ccccc1C(=O)N1CCN(c2ccc(NC(=O)c3ccc(-c4ccc(Cl)cc4)o3)cc2)CC1` the value was 12.9%; for `CCC(=O)N1CCN(c2ccc(NC(=O)c3cc4ccccc4o3)cc2)CC1`, 46%; for `CC(C)C(=O)Nc1cccc(NC(=O)c2ccc(-c3ccc(Cl)cc3)o2)c1`, 4.1%.
As to `CC[C@@H]1CCc2c(sc(NC(=O)Nc3ccccc3)c2C(N)=O)C1`, the inhibition in data set [1] worked out at 79%. Also, the half-inhibitory concentration (IC50) in data set [2] came out at 10.3 µM.
Take `Cc1ccc(NC=C2C(=O)c3ccccc3C2=O)cc1C`: in data set [1], the inhibition stood at 43%.
As for `O=C(Nc1cc(Cl)cc(Cl)c1)c1ccc(-c2ccc([N+](=O)[O-])cc2)o1`, the inhibition in data set [1] was found to be 8.9%.
Turning to `Cc1c(Cl)cccc1-c1ccc(C(=O)Nc2ccc(S(N)(=O)=O)cc2)o1`, the inhibition in data set [1] is 76.4%; in [3], 18.4%; in data set [4] it was 17.4%; in data set [5], -2.3%; in [6], 51.7%; in [7] it was 5.2%. Moreover, the inhibition in data set [8] is 32.4%; in data set [9], 27%; in [10] it was 17.3%; in data set [11] it was 7.7%; in data set [12], 23.7%; in data set [13], 0.1%. The inhibition in data set [14] is 13.8%; in data set [15], 24%; in [16], 15.3%. The IC50 in data set [2] was 0.26 µM. Besides, the Activity result with NCI-H1703 is recorded as “Non-toxic”.
In the case of `O=C1[C@H](Cc2ccc(O)cc2)N2C(=O)CCN(C(=O)NCc3ccccc3)[C@H]2CN1Cc1cccc2ccccc12`, in the data set with NCI-H1703, the Activity entry is listed as “Non-toxic”.
For the compound `Cc1cc(C(=O)Nc2cccc(S(=O)(=O)N3CCOCC3)c2)sc1-c1ccccc1`, the inhibition in [1] is -4.9%.
Consider `O=C(NNC(=O)c1cc2ccccc2cc1O)NC1CCCCC1`, for which the inhibition in data set [1] is 42%.
Consider `CNS(=O)(=O)c1ccc(NC(=O)c2cc(C)c(-c3ccccc3)s2)cc1`, for which the inhibition in data set [1] stood at 72.8%.
Regarding `CN1CCN(c2ccc(NC(=O)c3cccc(Cl)c3)cc2)CC1`, the inhibition in data set [1] stood at 45%.
As to `O=C(Nc1nnc(/C=C/c2ccccc2)s1)c1ccco1`, in data set [1], the inhibition stood at 70%. For the same compound, in [2], the IC50 was 3.57 µM.
With `Cc1ccc(-c2cc(C(=O)Nc3ccncc3)no2)cc1`, the inhibition in data set [1] turned out to be 40%.
Regarding `CN1CCN(c2ccc(NC(=O)c3ccc(-c4cc(Cl)ccc4Cl)o3)cc2)CC1`, the inhibition in data set [1] turned out to be 94%; in [3] it was 17.4%; in [4], 19.5%; in [5] it was 4.3%; in data set [6] it was 9.3%; in [7], 21.6%. The inhibition in data set [8] was 54.8%; in data set [9] it was 93.8%; in [10] it was 20.7%; in data set [11] it was 3.4%; in data set [12], 3.5%; in data set [13], 64.9%. The inhibition in data set [14] turned out to be 75.7%; in [20] it was 11.7%; in data set [15] it was 46.9%; in [16], 34.9%. Besides, the 50% inhibitory concentration (IC50) in data set [2] came to 0.85 µM; in data set [17], 0.394 µM; in data set [18] it was 0.849 µM; in [19], 6.18 µM. Besides, the Activity entry in the data set with NCI-H1703 is recorded as “Non-toxic”.
Take `CN1CCN(c2ccc3nc(-c4c(N)c5c(F)cccc5[nH]c4=O)[nH]c3c2)CC1` [DOVITINIB]: the Activity result with NCI-H1703 is given as “Toxic”.
For the compound `O=C(Nc1ccccc1Cl)c1ccc(-c2ccc(Cl)cc2)o1`, the inhibition in [1] amounted to 18.7%.
Turning to `COc1ccc(C(=O)/C=C/Nc2ccc(C)c(C)c2)cc1`, in [1], the inhibition worked out at 32%.
Consider `CN(C)c1ccc(NC(=O)c2cc3ccccc3o2)cc1`, for which the inhibition in data set [1] came out at 39%.
Consider `O=C(Nc1ccc(Br)cc1)Nc1ccc(CN2CCCC2)cc1`, for which, in [1], the inhibition is 72%. Further, in data set [2], the half-maximal inhibitory concentration (IC50) came out at 3.51 µM.
In the case of `Cc1cc(C(=O)Nc2ccc(C(=O)N3CCOCC3)cc2)sc1-c1ccccc1`, the inhibition in data set [1] amounted to 60.4%.
Consider `CC(C)(C)c1ccc(/C=C/C(=O)Nc2ccccc2C(N)=O)cc1`, for which the inhibition in data set [1] was 63%. Further, the half-inhibitory concentration (IC50) in data set [2] is 2.74 µM.
In the case of `Cc1cc([N+](=O)[O-])ccc1-c1ccc(C(=O)Nc2cccc(Cl)c2N2CCOCC2)o1`, the inhibition in data set [1] came out at 22.3%.
The same measure, in the same setting: for `Cc1cc(C(=O)Nc2ccccc2C(N)=O)sc1-c1ccccc1` the value was 61.7%.
On to `O=C(Nc1cccc(NC(=O)c2ccc(Cl)cc2Cl)c1)c1ccc(-c2cccc([N+](=O)[O-])c2)o1`, for which the inhibition in data set [1] came out at 16.8%.
Consider `CC(=O)Nc1ccc(NC(=O)c2ccc(-c3ccc(Cl)c(Cl)c3)o2)cc1`, for which the inhibition in data set [1] was 23.1%.
